Measured values: patent US20240116885A1, “BENZOTHIAZOLE AND QUINOLINE DERIVATIVES AND THEIR USE” (Shanghai Yao Yuan Biotechnology Co., Ltd., priority 2020, published 2024)

Experiments:
ALPK1 = ALPK1 (Homo sapiens (Human), UniProt Q96QP1); assay: ALPK1 in vitro kinase assay (HTRF, TIFA phosphorylation); type: biochemical; details: ADP-Heptose activated ALPK1
Procedure: ALPK1 kinase activity was measured in an in vitro assay using ADP-Heptose as the ALPK1 ligand and activator of its kinase activity and TIFA protein as the ALPK1 phosphorylation substrate. Since phosphorylated TIFA proteins oligomerize, Homogeneous Time-Resolved Fluorescence (HTRF) was used to measure protein:protein interaction between HA-tagged TIFA proteins as an indicator of TIFA phosphorylation.
In brief, dose-response studies were performed with HEK293 cells cultured in Dulbecco's Modified Eagle Medium (DMEM) supplemented 10% fetal bovine serum (FBS, Hyclone™) containing antibiotics (pen/strep, G418) in 384-well assay plates. Each well contained 0.1 mg TIFA, ALPK1 (2 nM final concentration in reaction mixture) and kinase buffer (100 mM of HEPES pH 7.4, 4 mM DTT, 40 mM MgCl2, 20 mM of β-Glycerol phosphate disodium salt, 0.4 mM of Na3VO4, 0.16 mg/mL). Titrations of the test compounds were prepared in dimethylsulphoxide (DMSO). The reaction was initiated by addition of ATP and ADP-Heptose.
For HTRF, samples were incubated with a Tb cryptate-labeled anti-HA antibody for capturing HA-tagged proteins according to the manufacturer's instructions (PerkinElmer™, CisBio™) and the fluorescence signal was quantified (Tecan Infinite F NANO+). HTRF signals were calculated as the HTRF ratio (ratio of fluorescence measured at 665 nm and 620 nm)×104 (thereby using the signal at 620 nm as an internal standard).
IC50 values were determined using 3- or 4-parameter logistic equation using GraphPad Prism version 6.00. The reference compound, A027, was used as a positive control for each plate.

[1] = tested on: ALPK1-dependent NFκB reporter gene activation; assay: NFκB gene reporter alkaline phosphatase assay in HEK293 G9 cells; type: cell-based; details: Homo sapiens; HEK293 G9 cells stimulated with D-glycero-D-manno-6-fluoro-heptose-1β-S-ADP
Procedure: An alkaline phosphatase reporter assay system was used to measure inhibition of ALPK1-dependent NFκB reporter gene activation. Briefly, HEK293 cells stably expressing an NF-kB reporter (referred to herein as “G9 cells”) were maintained in DMEM as described above. For the assay, cells were seeded into 96-well plates at a density of 10,000 cells/well in Freestyle™ 293 Expression Medium (ThermoFisher), and allowed to attach overnight. Cells were pretreated with serially diluted compounds for 30 min and then stimulated with D-glycero-D-manno-6-fluoro-heptose-1β-S-ADP. […] NFkB gene activation was detected using the chromogenic substrate, para-nitrophenyl phosphate (pNPP) according to the manufacturer's protocols (pNPP Phosphatase Assay, Beyotime Biotechnology).

Sequence of ALPK1 (Q96QP1 whole entry): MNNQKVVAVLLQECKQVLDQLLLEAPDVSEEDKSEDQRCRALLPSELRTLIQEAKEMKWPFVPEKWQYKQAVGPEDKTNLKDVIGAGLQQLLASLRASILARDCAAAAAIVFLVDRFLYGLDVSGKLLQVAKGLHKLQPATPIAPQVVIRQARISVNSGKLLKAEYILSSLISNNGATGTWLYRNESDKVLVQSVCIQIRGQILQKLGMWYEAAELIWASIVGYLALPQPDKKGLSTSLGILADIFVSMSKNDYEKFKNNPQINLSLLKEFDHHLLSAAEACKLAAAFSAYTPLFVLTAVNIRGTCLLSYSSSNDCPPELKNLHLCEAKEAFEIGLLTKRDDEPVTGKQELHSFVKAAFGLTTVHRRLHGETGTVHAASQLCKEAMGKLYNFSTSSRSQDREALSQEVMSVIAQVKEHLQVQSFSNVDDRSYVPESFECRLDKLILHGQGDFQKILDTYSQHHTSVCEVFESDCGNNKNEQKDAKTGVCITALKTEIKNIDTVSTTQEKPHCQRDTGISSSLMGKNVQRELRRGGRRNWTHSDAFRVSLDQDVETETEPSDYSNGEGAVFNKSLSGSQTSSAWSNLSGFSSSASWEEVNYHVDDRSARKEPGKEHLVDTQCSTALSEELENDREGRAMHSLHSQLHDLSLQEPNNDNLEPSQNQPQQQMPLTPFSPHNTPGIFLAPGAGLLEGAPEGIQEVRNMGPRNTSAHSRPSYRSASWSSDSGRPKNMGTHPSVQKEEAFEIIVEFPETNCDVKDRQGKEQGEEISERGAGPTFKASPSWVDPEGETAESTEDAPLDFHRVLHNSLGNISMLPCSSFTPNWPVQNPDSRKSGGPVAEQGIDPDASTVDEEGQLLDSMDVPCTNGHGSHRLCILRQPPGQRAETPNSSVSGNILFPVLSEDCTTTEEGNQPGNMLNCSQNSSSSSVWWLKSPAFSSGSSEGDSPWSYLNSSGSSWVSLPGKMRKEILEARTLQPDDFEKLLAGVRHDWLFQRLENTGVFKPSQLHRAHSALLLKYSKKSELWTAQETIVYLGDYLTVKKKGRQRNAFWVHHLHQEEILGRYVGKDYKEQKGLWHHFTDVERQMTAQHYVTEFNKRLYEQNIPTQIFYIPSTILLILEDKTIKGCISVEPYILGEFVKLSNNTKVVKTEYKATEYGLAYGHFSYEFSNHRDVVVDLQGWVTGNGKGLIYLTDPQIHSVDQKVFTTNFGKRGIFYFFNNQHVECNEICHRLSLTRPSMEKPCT

Structure (SMILES)	IC50 (ALPK1)	IC50 [1]
COc1cccc2sc(NC(=O)c3c(F)cc(N4CCN(CCO)CC4)cc3F)nc12 [Compound T025, 2,6-difluoro-4-(4-(2-hydroxyethyl)piperazin-1-yl)-N-(4-methoxybenzo[d]thiazol-2-yl)benzamide]	148 nM	2920 nM
COc1cccc2sc(NC(=O)c3c(F)cc(N4CCC(N)C4)cc3F)nc12 (stereo not shown) [Compound T026, 4-(3-aminopyrrolidin-1-yl)-2,6-difluoro-N-(4-methoxybenzo[d]thiazol-2-yl)benzamide]	125 nM	2380 nM
COc1cccc2sc(NC(=O)c3c(F)cc(N4CCC(O)C4)cc3F)nc12 (stereo not shown) [Compound T027, 2,6-difluoro-4-(3-hydroxypyrrolidin-1-yl)-N-(4-methoxybenzo[d]thiazol-2-yl)benzamide]	1170 nM	3650 nM
COc1cccc2sc(NC(=O)c3c(F)cc(N4CCC(O)CC4)cc3F)nc12 [Compound T028, 2,6-difluoro-4-(4-hydroxypiperidin-1-yl)-N-(4-methoxybenzo[d]thiazol-2-yl)benzamide]	248 nM	1490 nM
COc1cccc2sc(NC(=O)c3c(F)cc(OCCO)cc3F)nc12 [Compound T029, 2,6-difluoro-4-(2-hydroxyethoxy)-N-(4-methoxybenzo[d]thiazol-2-yl)benzamide]	560 nM	2990 nM
COc1cc(F)cc2sc(NC(=O)c3c(F)cc(N4CCNCC4)cc3F)nc12 [Compound T030, 2,6-difluoro-N-(6-fluoro-4-methoxybenzo[d]thiazol-2-yl)-4-(piperazin-1-yl)benzamide]	318 nM	2220 nM
O=C(Nc1nc2c(Br)cccc2s1)c1c(F)cc(N2CCNC(CO)C2)cc1F (stereo not shown) [Compound T033, N-(4-bromobenzo[d]thiazol-2-yl)-2,6-difluoro-4-(3-(hydroxymethyl)piperazin-1-yl)benzamide]	38 nM	1330 nM
Cc1cc(Cl)cc2sc(NC(=O)c3c(F)cc(N4CCNCC4)cc3F)nc12 [Compound T038, N-(6-chloro-4-methylbenzo[d]thiazol-2-yl)-2,6-difluoro-4-(piperazin-1-yl)benzamide]	255 nM	9980 nM
COc1cccc2sc(NC(=O)c3c(F)cc(C(=O)N4CCNCC4)cc3F)nc12 [Compound T040, 2,6-difluoro-N-(4-methoxybenzo[d]thiazol-2-yl)-4-(piperazine-1-carbonyl)benzamide]	341 nM	6330 nM
COc1cc(Cl)cc2sc(NC(=O)c3c(F)cc(N4CCNCC4)cc3F)nc12 [Compound T043, N-(6-chloro-4-methoxybenzo[d]thiazol-2-yl)-2,6-difluoro-4-(piperazin-1-yl)benzamide]	401 nM	3980 nM
CN1CCN(c2cc(F)c(C(=O)Nc3nc4c(Br)cccc4s3)c(F)c2)CC1 [Compound T044, N-(4-bromobenzo[d]thiazol-2-yl)-2,6-difluoro-4-(4-methylpiperazin-1-yl)benzamide]	13 nM	1090 nM
O=C(Nc1nc2c(O)cccc2s1)c1c(F)cc(N2CCNCC2)cc1F [Compound T045, 2,6-difluoro-N-(4-hydroxybenzo[d]thiazol-2-yl)-4-(piperazin-1-yl)benzamide]	1650 nM	4150 nM
O=C(Nc1nc2c(Cl)cccc2s1)c1c(F)cc(N2CCNCC2)cc1F [Compound T046, N-(4-chlorobenzo[d]thiazol-2-yl)-2,6-difluoro-4-(piperazin-1-yl)benzamide]	56 nM	1320 nM
C#Cc1cccc2sc(NC(=O)c3c(Cl)cc(N4CCNCC4)cc3Cl)nc12 [Compound T048, 2,6-dichloro-N-(4-ethynylbenzo[d]thiazol-2-yl)-4-(piperazin-1-yl)benzamide]	9 nM	7130 nM
CC#Cc1cccc2sc(NC(=O)c3c(F)cc(N4CCNCC4)cc3F)nc12 [Compound T049, 2,6-difluoro-4-(piperazin-1-yl)-N-(4-(prop-1-yn-1-yl)benzo[d]thiazol-2-yl)benzamide]	43 nM	2100 nM
C#Cc1cccc2sc(NC(=O)c3c(C)cc(N4CCNCC4)cc3F)nc12 [Compound T050, N-(4-ethynylbenzo[d]thiazol-2-yl)-2-fluoro-6-methyl-4-(piperazin-1-yl)benzamide]	98 nM	960 nM
C#Cc1cccc2sc(NC(=O)c3c(F)cc(N4CCNCC4C(C)C)cc3F)nc12 (stereo not shown) [Compound T051, N-(4-ethynylbenzo[d]thiazol-2-yl)-2,6-difluoro-4-(2-isopropylpiperazin-1-yl)benzamide]	56 nM	1590 nM
C#Cc1cccc2sc(NC(=O)c3c(F)cc(N4CCNCC4CC)cc3F)nc12 (stereo not shown) [Compound T052, 4-(2-ethylpiperazin-1-yl)-N-(4-ethynylbenzo[d]thiazol-2-yl)-2,6-difluorobenzamide]	58 nM	1320 nM
C#Cc1cccc2sc(NC(=O)c3c(F)cc(N4CC[C@@H](N)C4)cc3F)nc12 [Compound T053, (R)-4-(3-aminopyrrolidin-1-yl)-N-(4-ethynylbenzo[d]thiazol-2-yl)-2,6-difluorobenzamide]	83 nM	890 nM
C#Cc1cccc2sc(NC(=O)c3c(F)cc(N4CCN(C(N)=O)CC4)cc3F)nc12 [Compound T055, 4-(4-((4-ethynylbenzo[d]thiazol-2-yl)carbamoyl)-3,5-difluorophenyl)piperazine-1-carboxamide]	126 nM	2150 nM
C#Cc1cccc2sc(NC(=O)c3c(F)cc(N4CCNCC4C)cc3F)nc12 (stereo not shown) [Compound T059, N-(4-ethynylbenzo[d]thiazol-2-yl)-2,6-difluoro-4-(2-methylpiperazin-1-yl)benzamide]	43 nM	550 nM
C#Cc1cccc2sc(NC(=O)c3c(F)cc(N4CCNC[C@H]4C)cc3F)nc12 [Compound T061, (R)-N-(4-ethynylbenzo[d]thiazol-2-yl)-2,6-difluoro-4-(2-methylpiperazin-1-yl)benzamide]	30 nM	300 nM
C#Cc1cccc2sc(NC(=O)c3c(F)cc(N4CC[C@H](N)C4)cc3F)nc12 [Compound T062, (S)-4-(3-aminopyrrolidin-1-yl)-N-(4-ethynylbenzo[d]thiazol-2-yl)-2,6-difluorobenzamide]	89 nM	880 nM
C#Cc1cccc2sc(NC(=O)c3c(F)cc(N4CCOCC4)cc3F)nc12 [Compound T063, N-(4-ethynylbenzo[d]thiazol-2-yl)-2,6-difluoro-4-morpholinobenzamide]	165 nM	1280 nM
C#Cc1cccc2sc(NC(=O)c3c(F)cc(N4CCN(Cc5ccc(F)cc5)CC4)cc3F)nc12 [Compound T065, N-(4-ethynylbenzo[d]thiazol-2-yl)-2,6-difluoro-4-(4-(4-fluorobenzyl)piperazin-1-yl)benzamide]	182 nM	6580 nM
C#Cc1cccc2sc(NC(=O)c3c(F)cc(-n4ccnc4)cc3F)nc12 [Compound T066, N-(4-ethynylbenzo[d]thiazol-2-yl)-2,6-difluoro-4-(1H-imidazol-1-yl)benzamide]	367 nM	1560 nM
